Data reported in patent publication US20250000879A1, “PHARMACEUTICAL COMPOSITION FOR PREVENTING DIABETES AND USE THEREOF” (HANYI BIO-TECHNOLOGY (BEIJING) CO., LTD., priority 2018, published 2025).

How the values were obtained:
[1] = system: diabetes model mice fed with high-fat feed; assay: Serum lipid and insulin levels in mice induced by STZ and high-fat feed; format: in vivo; conditions: metformin alone, 100 or 250 mg/kg by gavage once a day; two months of treatment; FIG. 6E
Experimental: After the mice were fasted for 10-12 hours, they were injected with 50 mg/kg of streptozotocin (STZ) intraperitoneally for 5 consecutive days.

mouse diarrhea model = assay: Diarrhea index in mouse diarrhea model induced by Folium Sennae; format: in vivo, mice; conditions: days 1-7, FIG. 4A to 4G
Experimental: ICR female mice of 4-6 weeks old were used as experimental animals. The mice ate and drank normally, and were given 8% (w/w) Folium Sennae solution by gavage, 0.2 ml/mouse. Diarrhea index of the mice was counted every other one and a half hours for 6 hours. Folium Sennae was purchased from Tongrentang Pharmacy in Beijing. The 8% (w/w) Folium Sennae solution was prepared by boiling 8 parts by weight of Folium Sennae and 92 parts by weight of water in a conical flask for 10 min.
The mice were randomly divided into 7 groups with 10 mice in each group: • Group 1: the mice were given the same volume of water by gavage every day; • Group 2: the mice were given 150 mg/kg of metformin by gavage every day; • Group 3: the mice were given 50 mg/kg of CBD by gavage every day; • Group 4: the mice were given 8% Folium Sennae solution by gavage every day; • Group 5: the mice were given a mixed solution of 8% Folium Sennae solution and 150 mg/kg of metformin by gavage every day; • Group 6: the mice were given a mixed solution of 8% Folium Sennae solution and 50 mg/kg of CBD by gavage every day; and • Group 7: the mice were given a mixed solution of 8% Folium Sennae solution, 150 mg/kg of metformin and 50 mg/kg of CBD by gavage every day.
Every day after gavage, the diarrhea index of each mouse was counted every other one and a half hours, 4 times in total […].
Diarrhea index=loose stool rate*loose stool grade
• Diarrhea rate: the number of animals with loose stools in this group/the total number of animals in this group*100%; • Loose stool rate: the number of loose stools per animal/the total number of stools; and • Loose stool grade: the hardness of loose stool graded according to the size of stains on filter paper with loose stool, as shown in Table 1 below.

[2] = system: mouse lactic acidosis model; assay: Blood lactic acid concentration in mouse lactic acidosis model induced by metformin; format: in vivo, mice; conditions: FIG. 5
Experimental: ICR male mice aged 4-6 weeks were used as experimental animals. The mice were administrated by gavage with metformin (260 mg/kg) for induction for three times, with an interval of 12 hours.
The mice were randomly divided into seven groups with five mice in each group: • Group 1: control group, no treatment; • Group 2: given water by gavage every day; • Group 3: given CBD by gavage once a day, 50 mg/kg; • Group 4: given 260 mg/kg of metformin by gavage in the morning and evening on the first day, and 260 mg/kg of metformin by gavage in the next morning, and sampled at […] in the next day; • Group 5: given 260 mg/kg of metformin by gavage in the morning and evening on the first day, and 260 mg/kg of metformin by gavage in the next morning, given 50 mg/kg of CBD at the same time metformin was given by gavage, and sampled at […] in the next day. • Group 6: injected with 260 mg/kg of metformin by caudal vein every other one hour for four times, and sampled one hour after the fourth injection; and • Group 7: given 50 mg/kg of CBD by gavage half an hour before caudal vein injection, injected with 260 mg/kg of metformin by caudal vein half an hour later, once every other hour, four times in total, and sampled one hour after the fourth injection. […]

[3] = system: mouse model of type 2 diabetes; assay: Glucose tolerance test (GTT) in STZ and high-fat feed mouse model of type 2 diabetes; format: in vivo, mice; conditions: CBD 50 mg/kg by gavage once a day; one month after administration; FIG. 2B
Experimental: C57 male mice aged 4-6 weeks were used as experimental animals. The mice were fed with high-fat feed. After the mice were fasted for 10-12 hours, they were injected with 50 mg/kg of streptozotocin (STZ) intraperitoneally for 5 consecutive days. […] The mice were applied to Group 2 to 8 in the following step 2). High-fat feed was formed by adding 60% fat to normal feed. […] One month after administration (after the type 2 diabetes model was stabilized,), a glucose tolerance test (GTT) was carried out. The mice were fasted for 10 hours, and injected with 20% (w/w) glucose was intraperitoneally according to their body weights (10 μl/g).

[4] = system: mouse model of type 2 diabetes; assay: Fasting blood glucose in STZ and high-fat feed mouse model of type 2 diabetes; format: in vivo, mice
Experimental: (§1) C57 male mice aged 4-6 weeks were used as experimental animals. The mice were fed with high-fat feed. After the mice were fasted for 10-12 hours, they were injected with 50 mg/kg of streptozotocin (STZ) intraperitoneally for 5 consecutive days. […] The mice were applied to Group 2 to 8 in the following step 2).
(§2) High-fat feed was formed by adding 60% fat to normal feed.

[5] = system: patients with type 2 diabetes; assay: Fasting blood glucose and glycosylated hemoglobin in diabetic volunteers; format: in vivo, human; conditions: oral CBD 300 mg/day, after 8 weeks, three patients
Experimental: Every patient received oral CBD treatment at 300 mg/day for 8 weeks. Fasting blood glucose was measured at the 0th, 4th and 8th weeks. Glycosylated hemoglobin value was measured at the 0th and 8th weeks. The results are shown in FIG. 8A and FIG. 8B, respectively.

[6] = system: DB/DB mice (spontaneous type 2 diabetic mice); assay: Blood glucose of DB/DB mice after administration treatment; format: in vivo; conditions: CBD alone 50 mg/kg, intragastric, once a day
Experimental: In order to study the effect of combined use of CBD and metformin, adult DB/DB mice (spontaneous type 2 diabetic mice, purchased from Model Animal Center of Nanjing University) were randomly divided into 5 groups, with 6 mice in each group: • Group 1: control group, no treatment; • Group 2: CBD alone administration group (50 mg/kg); • Group 3: low-dose metformin group (100 mg/kg, calculated by referring to the lowest dose for human, and the dose for mice=9.1×the dose for human); • Group 4: low-dose metformin (100 mg/kg)+CBD (50 mg/kg) group; and • Group 5: high-dose metformin group (250 mg/kg, calculated by referring to the lowest dose for human, and the dose for mice=9.1×the dose for human).
Group 3 and Group 5 were both positive control groups of the treatment group, Group 3 was low-dose metformin group, and Group 5 was high-dose metformin group.
The administration routes of the above five groups were all intragastric administration, once a day
After 4 weeks of administration, blood glucose of mice in each group was measured.

[7] = system: mouse model of type 1 diabetes; assay: Fasting blood glucose in STZ-induced mouse model of type 1 diabetes; format: in vivo, mice; conditions: FIG. 1A; for fasting blood glucose: after 10 days
Experimental: (§3) C57 male mice aged 4-6 weeks were used as experimental animals. After the mice were fasted for 10-12 hours, they were injected with 50 mg/kg of streptozotocin (STZ) intraperitoneally for 5 consecutive days. Fasting blood glucose levels of mice on the 6th and 10th days were measured to determine whether the induction was successful (the induction was considered successful when fasting blood glucose was greater than 11.1 mmol/L). The mice were applied to Group 2 to 6 in the following step 2).
The mice were randomly divided into 6 groups with 10 mice in each group: • Group 1: blank control group, fed with normal feed and intraperitoneally injected with a buffer solution at a dose of 100 μl/mouse, once a day for 5 consecutive days; • wherein, the buffer solution was a citric acid buffer solution with a concentration of 0.1 mol/L and pH of 4.2 and was sterilized by suction filtration. • Group 2: diabetes model group, fed with normal feed and intraperitoneally injected with streptozotocin; • Group 3: CBD prevention group, fed with normal feed, intraperitoneally injected with streptozotocin, and given CBD by gavage from the first day of induction, 50 mg/kg, once a day; • Group 4: CBD treatment group, fed with normal feed, intraperitoneally injected with streptozotocin, and given CBD by gavage after successful induction, 50 mg/kg, once a day; • Group 5: positive drug control group, fed with normal feed, intraperitoneally injected with streptozotocin, and injected with insulin after successful induction, 0.2 U/kg, once a day; and • Group 6: metformin group, fed with normal feed, intraperitoneally injected with streptozotocin, and given metformin by gavage after successful induction, 50 mg/kg, once a day.
(§4) Fasting blood glucose of mice in each group was detected every other three to four weeks; after one month of administration (the model was stable), a glucose tolerance test (GTT) was carried out. […] The blood glucose of the mice before injection (0 min) and at 15 min, 30 min, 60 min and 120 min after injection were measured respectively.

[8] = system: mouse model of type 1 diabetes; assay: Glucose tolerance test (GTT) in STZ-induced mouse model of type 1 diabetes; format: in vivo, mice; conditions: FIG. 1B
Experimental: as §3, with “2). […]” for “2).”
as §4

[9] = system: mouse model of chronic renal failure induced by adriamycin; assay: Urinary total protein in mice with chronic renal failure induced by adriamycin; format: in vivo; conditions: CBD 50 mg/kg by gavage once a day; urine on the 14th day of nephropathy induction; FIG. 7
Experimental: A mouse model of chronic renal failure induced by adriamycin was constructed according to a conventional method of inducing kidney injury. After CBD treatment for 14 days, urinary total protein level was measured. The specific method is as follows: Kunming white male mice aged 4-6 weeks were used as experimental animals. After the mice were fasted for 10-12 hours, they were injected with 50 mg/kg of streptozotocin (STZ) intraperitoneally for 5 consecutive days. […] On the 7th day after diabetes induction, the mice in the nephropathy group were injected with adriamycin at 10 mg/kg by caudal vein. The mice were applied to the Group 3 to 6 in the following step 2). The experimental animals were randomly divided into 6 groups with 10 animals in each group: • Group 1: control group, fed with normal saline; • Group 2: diabetes group; • Group 3: diabetes+CBD group; given CBD by gavage, 50 mg/kg, once a day; • Group 4: diabetes+adriamycin group; • Group 5: diabetes+adriamycin+CBD group; given CBD by gavage, 50 mg/kg, once a day; and • Group 6: diabetes+adriamycin+metformin group; given metformin by gavage, 50 mg/kg, once a day. After successfully inducing the mouse diabetes model, the mice were injected with adriamycin through caudal vein to induce nephropathy model. Urine was collected from the mice on the 14th day of the induction of nephropathy model, and urinary total protein was detected.

[10] = system: mouse model of type 2 diabetes; assay: Insulin tolerance test (ITT) in STZ and high-fat feed mouse model of type 2 diabetes; format: in vivo, mice; conditions: CBD 50 mg/kg by gavage once a day; one month after administration; FIG. 2C
Experimental: as §1, §2

[11] = system: mouse model of type 1 diabetes; assay: Insulin tolerance test (ITT) in STZ-induced mouse model of type 1 diabetes; format: in vivo, mice; conditions: FIG. 1C
Experimental: as §3, with “2). […]” for “2).”
One week after GTT, an insulin tolerance test (ITT) was carried out. […] The blood glucose of the mice before injection (0 min) and at 15 min, 30 min, 60 min and 120 min after injection were measured respectively.

## CN(C)C(=N)N=C(N)N [metformin, Metformin, reference compound]
[1]
  insulin level in serum (insulin secretion): could not increase insulin secretion
Mouse diarrhea model; metformin 150 mg/kg with 8% Folium Sennae solution by gavage every day
  diarrhea index: aggravate diarrhea induced by Folium Sennae
[2]; metformin 260 mg/kg, by gavage three times or by caudal vein four times
  lactic acid concentration in blood: induce lactic acidemia

## C=C(C)[C@@H]1CCC(C)=C[C@H]1c1c(O)cc(CCCCC)cc1O [CBD, Cannabidiol]
[3]
  glucose tolerance test (GTT), regulation of glucose: improve regulation of glucose in the mice induced by STZ and high-fat feed
Mouse diarrhea model; CBD 50 mg/kg with 8% Folium Sennae solution and 150 mg/kg metformin by gavage every day
  diarrhea index, diarrhea induced and aggravated by metformin: significantly alleviate
Mouse diarrhea model; CBD 50 mg/kg with 8% Folium Sennae solution by gavage every day
  diarrhea index, diarrhea induced by Folium Sennae: significantly alleviate
[4]; 50 mg/kg by gavage once a day, FIG. 2A to FIG. 2C
  CBD prevention group compared with CBD treatment group (fasting blood glucose, GTT, ITT): the CBD prevention group had a better effect than the CBD treatment group
[4]; CBD 50 mg/kg by gavage once a day, FIG. 2A
  fasting blood glucose: significantly reduce the blood glucose elevation induced by STZ and high-fat feed
[5]; FIG. 8A
  fasting blood glucose: decreased significantly
[5]; FIG. 8B
  glycosylated hemoglobin: improved significantly
[6]
  blood glucose: reduce blood glucose
[2]; CBD 50 mg/kg by gavage with metformin 260 mg/kg (gavage or caudal vein)
  lactic acid concentration in blood: significantly inhibit the increase of lactic acid in blood induced by metformin
[7]; 50 mg/kg by gavage once a day
  fasting blood glucose, CBD prevention group compared with CBD treatment group: the CBD prevention group had a better effect than the CBD treatment group
[7]; CBD prevention group: 50 mg/kg by gavage once a day from the first day of STZ induction
  fasting blood glucose: significantly reduce the blood glucose increase caused by STZ
[7]; CBD treatment group: 50 mg/kg by gavage once a day after successful induction
  fasting blood glucose: significantly reduce the blood glucose increase caused by STZ
[8]; 50 mg/kg by gavage once a day
  GTT, CBD prevention group compared with CBD treatment group: the CBD prevention group had a better effect than the CBD treatment group
[8]; CBD 50 mg/kg by gavage once a day, after one month of administration
  glucose tolerance test (GTT), regulation of glucose: significantly enhance regulation of glucose in the mice
[9]
  urinary total protein level: significantly reduce urinary total protein level
[10]
  insulin tolerance test (ITT), sensitivity to insulin: improve sensitivity of the mice to insulin
[11]; 50 mg/kg by gavage once a day
  ITT, CBD prevention group compared with CBD treatment group: the CBD prevention group had a better effect than the CBD treatment group
[11]; CBD 50 mg/kg by gavage once a day, one week after GTT
  insulin tolerance test (ITT), sensitivity to insulin: significantly enhance sensitivity of the mice to insulin
